{
  "source": "patent US11116735B2",
  "about": "“Use of substituted benzylideneguanidine derivatives as synergists for polymyxin antibiotics” (GUANGZHOU INSIGHTER BIOTECHNOLOGY CO., LTD., priority 2015, dated 2021)",
  "key": {"cherry valley ducks": {"test_system": "cherry valley ducks", "assay": "Combined application of compound 3 and colistin sulfate in duck feed", "format": "in vivo", "conditions": "21-day experiment", "method": "800 1-day-aged cherry valley ducks were divided into 4 groups according to Table 10, 4 parallels in each group and 50 ducks in each parallel. For each group, colistin sulfate and/or compound 3 were added into the feed. The ducks were kept in cages and given ad libitum access to feed and water during a 21-day experiment. Synergy of compound 3 and colistin sulfate on the ducks in the weight gain and feed efficiency was observed from the result (see Table 11)."}, "E. coli 3H-4": {"test_system": "E. coli 3H-4", "assay": "MIC by doubling dilution, colistin sulfate-resistant E. coli 3H-4", "description": "In vitro minimum inhibitory concentrations of colistin sulfate against the strains where the cultures respectively comprised 20.0 ppm of the substituted benzylideneguanidine derivatives were also measured."}, "[1]": {"test_system": "fast-growing yellow feather broilers", "assay": "Combined application of compound 3 and colistin sulfate in chicken feed", "format": "in vivo", "conditions": "28-day experiment; for Average daily weight gain / Feed conversion ratio / Survival rate: broilers", "method": "800 1-day-aged fast-growing yellow feather broilers were divided into 4 groups, 4 parallels in each group and 50 broilers in each parallel. For each group, colistin sulfate and/or compound 3 were added into the feed. The chicken were kept in cages and given ad libitum access to feed and water during a 28-day experiment. Synergy of compound 3 and colistin sulfate on the chicken in the weight gain and feed efficiency was observed from the result (see Table 10)."}, "E. coli 3B-24": {"test_system": "E. coli 3B-24", "assay": "MIC by doubling dilution, colistin sulfate-susceptible E. coli 3B-24", "format": "cell-based, Escherichia coli"}, "[2]": {"conditions": "20 ppm colistin sulfate and 50 ppm compound 3 in feed (Test)"}},
  "data": [
    {"smiles": "CC(C)Oc1ccc(C=NN=C(N)NN=Cc2ccc(OC(C)C)cc2)cc1", "note": "[Compound 3]", "values": [
      {"measurement": "Average daily weight gain", "setting": "cherry valley ducks; [2]", "value": 55.6, "unit": "g"},
      {"measurement": "Feed conversion ratio", "setting": "cherry valley ducks; [2]", "value": 1.817},
      {"measurement": "Survival rate", "setting": "cherry valley ducks; [2]", "value": 100, "unit": "%"},
      {"measurement": "Synergy with colistin sulfate in weight gain and feed efficiency", "setting": "cherry valley ducks", "value": "Synergy"},
      {"measurement": "Average daily weight gain", "setting": "cherry valley ducks; 100 ppm compound 3 in feed", "value": 50.5, "unit": "g"},
      {"measurement": "Feed conversion ratio", "setting": "cherry valley ducks; 100 ppm compound 3 in feed", "value": 1.926},
      {"measurement": "Survival rate", "setting": "cherry valley ducks; 100 ppm compound 3 in feed", "value": 100, "unit": "%"},
      {"measurement": "In vitro minimum inhibitory concentration (MIC) of the substance alone", "setting": "E. coli 3H-4; E. coli 3H-4, colistin sulfate-resistant, substance alone, derivatives as hydrochlorides", "value": ">800", "unit": "ppm"},
      {"measurement": "In vitro MIC of colistin sulfate in the presence of the substituted benzylideneguanidine derivative", "setting": "E. coli 3H-4; E. coli 3H-4, resistant, culture comprised 20.0 ppm of the derivative (hydrochloride)", "value": 0.5, "unit": "ppm"},
      {"measurement": "Average daily weight gain", "setting": "[1]; [2]", "value": 44.6, "unit": "g"},
      {"measurement": "Feed conversion ratio", "setting": "[1]; [2]", "value": 1.855},
      {"measurement": "Survival rate", "setting": "[1]; [2]", "value": 100, "unit": "%"},
      {"measurement": "Average daily weight gain", "setting": "[1]; 100 ppm compound 3 in feed", "value": 40.2, "unit": "g"},
      {"measurement": "Feed conversion ratio", "setting": "[1]; 100 ppm compound 3 in feed", "value": 1.943},
      {"measurement": "Survival rate", "setting": "[1]; 100 ppm compound 3 in feed", "value": 100, "unit": "%"},
      {"measurement": "Synergy with colistin sulfate in weight gain and feed efficiency", "setting": "[1]; chicken", "value": "Synergy"},
      {"measurement": "In vitro minimum inhibitory concentration (MIC) of the substance alone", "setting": "E. coli 3B-24; E. coli 3B-24, colistin sulfate-susceptible, substance alone, derivatives as hydrochlorides", "value": ">800", "unit": "ppm"},
      {"measurement": "In vitro MIC of colistin sulfate in the presence of the substituted benzylideneguanidine derivative", "setting": "E. coli 3B-24; E. coli 3B-24, culture comprised 20.0 ppm of the derivative (hydrochloride), colistin sulfate serially diluted", "value": 0.50, "unit": "ppm"}
    ]}
  ]
}
